Measurements published in patent US20260097111A1, “ETHER LIPIDS FOR HYPERACTIVATION OF MAMMALIAN DENDRITIC CELLS” (priority 2022, published 2026).

Assays:
murine FLT3L-DCs = assay: Murine bone marrow-derived FLT3L-DCs hyperactivation; format: cell-based, mice; conditions: R848 alone vs R848 in combination with DGP; FIG. 4C
Procedure: Murine bone marrow-derived FLT3L-DCs generation. Leg femur and tibia were removed from mice, cut with scissors, and flushed into sterile tubes. Bone marrow suspension was treated with ACK for 1 minute, then passed through a 40 um cell strainer. Cells were counted and resuspended in media consisting of complete IMDM containing 10% FBS, penicillin and streptomycin, and supplements of L-glutamine and sodium pyruvate (I10). […] For each experiment, 5 mice are used to collect BM and to generate DCs.
Lipid preparation. […] Lipid stocks were then further diluted in PBS to treat cells.
Murine bone marrow-derived FLT3L-DCs hyperactivation. BMDCs were harvested on day 8 post differentiation, washed with PBS, and re-plated in FLT3L-containing I10 at a concentration of 1×10^5 cells/mL. Cells were primed with or without 1 μg/mL R848 (final) then treated with or without a hyperactivating lipid (or vehicle control). Forty-eight hours post stimulation, supernatants were collected for cytokine measurement. Viability was measured using the CellTiter-Glo assay (Promega) which measures ATP content from cells. Fifty microliters of CellTiter-Glo reagent were added to 50 μL of cells. Luminescence was quantified on a SpectraMax m5e plate reader using an integration time of 500 milliseconds. Viability data were set relative to control conditions where cells were treated with R848. IL-1β and TNFα cytokine were measured using sandwich ELISAs (Invitrogen).

human moDCs [1] = assay: IL-6 secretion by human moDCs; format: cell-based; conditions: human moDCs, 41.25 μM lipid with R848, compared with R848 + vehicle; FIG. 16
[2] = DGP DP sizing (Malvern Mastersizer 3000); format: physicochemical
Procedure: DGP (Compound 2) DP Synthesis. DGP DP was synthesized at a 3 mL scale using the following procedure. […] Sterile 10×PBS was added to the solution resulting in a 1×PBS concentration and 4 mg/mL DGP DP concentration. The mixture was then stirred at 1000 rpm for another 30 min at RT. For DGP DP prepared at 12 or 18 mL scale, the same procedure was followed, with volumes, vials, and stir bars scaled up to achieve the 4 mg/mL DGP DP preparation.
In cases where DGP DS was micronized prior to use, DGP DS underwent jet milling using an M-50 (Microtech Engineering Company) to reduce DS size to an average of 3-5 μm. […] For in vitro studies, DGP DP samples were sonicated at 2 W (low energy) or 4 W (medium energy) over two 30 s intervals. For in vivo studies, DGP DP samples were sonicated at 3 W over two 30 s intervals as a mid-energy assessment.
DGP (Compound 2) DP Sizing. DGP DP size was determined using a Malvern Mastersizer 3000 with a Hydro SV attachment. Briefly, DGP DP was diluted to 1 mg/mL in water prior to sizing. The 1 mg/mL DGP DP was added drop-wise to a measurement chamber filled with water under spinning until laser obscuration was 3-5%. Five measurements were taken per sample, with the average of the measurements reported.

human moDCs [3] = assay: In vitro transwell migration assay towards CCL19; format: cell-based; conditions: donor HD87, 10 ng/mL CCL19; FIG. 34A
Procedure: In Vitro Transwell Migration Assay. To test the capacity of human dendritic cells to migrate, an in vitro migration assay was set up. After differentiation into moDC using GM-CSF and IL-4, cells were plated on 10 cm petri dishes at 4×10^6 cells/plate in R10++. Cells were treated with various combinations of 2.85 μM R848, 82.5 μM DGP, and 10 μM MCC950 (final concentrations). Additionally, 50 ng/mL GM-CSF and 25 ng/mL IL-4 was added to the plates. Cell cultures were incubated in a total of 8 mL/plate in a 37° C. incubator on an orbital shaker set at 100 rpm overnight.
Cells were collected from plates and any remaining cells on plates were washed off the plates using PBS. After pelleting cells at 400×g for 5 min, cells were resuspended in R10++ and counted. Cell concentrations were adjusted to 5×10^5 cells/mL and plated in triplicate in the apical chambers of transwells at 1.5×10^5 cells/well. R10++ media containing 0; 20; or 200 ng/mL CCL19 were prepared and added to the basal chambers at 300 μL/well. For each cell treatment condition, control wells without transwell inserts were plated with an equivalent volume of cells and R10++ media. […]
To enumerate migrated DCs, an absolute count was obtained based on the total events acquired of counting beads and live, CD11c+CD209+ single cells. […] Finally, migration was calculated relative to cells treated with only R848 with no CCL19 added.

[4] = 18 mL scale, no DS or DP modification

| Compound | TNFα secretion (murine FLT3L-DCs) | IL-6 secretion (human moDCs [1]) | Particulate Size D10 ([2]; 3 mL scale) | Particulate Size D50 ([2]; 3 mL scale) | Particulate Size D90 ([2]; 3 mL scale) | Particulate Size D10 ([2]; 12 mL scale) | Particulate Size D50 ([2]; 12 mL scale) | Particulate Size D90 ([2]; 12 mL scale) | average size ([2]; 12 or 18 mL scale) | Particulate Size D10 [2, 4] | Particulate Size D50 [2, 4] | Particulate Size D90 [2, 4] | migration to the basal chamber (human moDCs [3]) |
| --- | --- | --- | --- | --- | --- | --- | --- | --- | --- | --- | --- | --- | --- |
| CCCCCCCCCCCCCCCCCCCCCCOC[C@@H](O)COP(=O)(O)O [Compound 2, 1-docosyl-sn-glycerol-3-phosphate] | comparable | IL-6 was secreted at similar levels | 6.83 μm | 13.8 μm | 27.5 μm | 12.0 μm | 25.0 μm | 51.7 μm | 26-27 μm | 12.9 μm | 26.7 μm | 56.0 μm | – |
| CC(C)(O)c1coc(S(=O)(=O)NC(=O)Nc2c3c(cc4c2CCC4)CCC3)c1 [MCC950, reference compound] | – | – | – | – | – | – | – | – | – | – | – | – | did not inhibit the hypermigration observed with R848+DGP |
